From ChEMBL document CHEMBL3885881, “DrugMatrix”

Species: Rattus norvegicus
Test: DrugMatrix - Regimen: Daily Repeat
Assay type: toxicity, organism-based, Sprague-Dawley
Design: regimen Daily Repeat, gender Male, age 6-8 weeks
Conditions: in vivo, po, route oral GAVAGE, vehicle 100 % WATER; for ABSOLUTE BASOPHIL / ABSOLUTE EOSINOPHIL / ABSOLUTE LYMPHOCYTE / ABSOLUTE MONOCYTE / ABSOLUTE SEGMENTED NEUTROPHIL / BASOPHIL / EOSINOPHIL / ERYTHROCYTE COUNT / HEMATOCRIT / HEMOGLOBIN / LEUKOCYTE COUNT / LYMPHOCYTE / MEAN CORPUSCULAR HEMOGLOBIN / MEAN CORPUSCULAR HEMOGLOBIN CONCENTRATION / MEAN CORPUSCULAR VOLUME / MONOCYTE / NEUTROPHIL / NUCLEATED RED BLOOD CELLS / PLATELET COUNT: tissue Blood; for ALANINE AMINOTRANSFERASE / ALBUMIN / ALKALINE PHOSPHATASE / ASPARTATE AMINOTRANSFERASE / BLOOD UREA NITROGEN / CARBON DIOXIDE / CHLORIDE / CHOLESTEROL / CREATINE PHOSPHOKINASE / CREATININE / GLUCOSE / LACTATE DEHYDROGENASE / LIPASE / PHOSPHORUS / POTASSIUM / SODIUM / TOTAL BILIRUBIN / TOTAL PROTEIN / URIC ACID: tissue Plasma
[1] = 0 mg/kg, 72 h, dose level Control, time 3 day
[2] = 0 mg/kg, 120 h, dose level Control, time 5 day
[3] = 8 mg/kg, 72 h, dose level Low, time 3 day

SMILES: CCN(C(C)=O)c1cccc(-c2ccnc3c(C#N)cnn23)c1 [ZALEPLON]
- ABSOLUTE BASOPHIL [1]: 0 CELLS/uL
- ABSOLUTE EOSINOPHIL [1]: 58.83 CELLS/uL
- ABSOLUTE LYMPHOCYTE [1]: 11823.5 CELLS/uL
- ABSOLUTE MONOCYTE [1]: 169 CELLS/uL
- ABSOLUTE SEGMENTED NEUTROPHIL [1]: 815.33 CELLS/uL
- BASOPHIL [1]: 0%
- EOSINOPHIL [1]: 0.5%
- ERYTHROCYTE COUNT [1]: 5.52 x10E6/uL
- HEMATOCRIT [1]: 35.77%
- HEMOGLOBIN [1]: 14.28 G/DL
- LEUKOCYTE COUNT [1]: 12.87 x10E3/uL
- LYMPHOCYTE [1]: 91.67%
- MEAN CORPUSCULAR HEMOGLOBIN [1]: 25.92 pg
- MEAN CORPUSCULAR HEMOGLOBIN CONCENTRATION [1]: 39.95 G/DL
- MEAN CORPUSCULAR VOLUME [1]: 64.85 fL
- MONOCYTE [1]: 1.33%
- NEUTROPHIL [1]: 6.5%
- NUCLEATED RED BLOOD CELLS [1]: 0 /100WBC
- PLATELET COUNT [1]: 1246.17 x10E3/uL
- ALANINE AMINOTRANSFERASE [1]: 66 u/L
- ALBUMIN [1]: 4.25 G/DL
- ALKALINE PHOSPHATASE [1]: 416 u/L
- ASPARTATE AMINOTRANSFERASE [1]: 106.17 u/L
- BLOOD UREA NITROGEN [1]: 12.67 mg/dL
- CARBON DIOXIDE [1]: 31.83 mmol/L
- CHLORIDE [1]: 102.5 MEQ/L
- CHOLESTEROL [1]: 69 mg/dL
- CREATINE PHOSPHOKINASE [1]: 601.83 u/L
- CREATININE [1]: 0.18 mg/dL
- GLUCOSE [1]: 154.5 mg/dL
- LACTATE DEHYDROGENASE [1]: 301.83 u/L
- LIPASE [1]: 11.17 u/L
- PHOSPHORUS [1]: 12.08 mg/dL
- POTASSIUM [1]: 6.12 MEQ/L
- SODIUM [1]: 145.2 MEQ/L
- TOTAL BILIRUBIN [1]: 0.17 mg/dL
- TOTAL PROTEIN [1]: 6.1 G/DL
- URIC ACID [1]: 1.57 mg/dL
- ABSOLUTE BASOPHIL [2]: 0 CELLS/uL
- ABSOLUTE EOSINOPHIL [2]: 19.33 CELLS/uL
- ABSOLUTE LYMPHOCYTE [2]: 12577.83 CELLS/uL
- ABSOLUTE MONOCYTE [2]: 106.33 CELLS/uL
- ABSOLUTE SEGMENTED NEUTROPHIL [2]: 896.5 CELLS/uL
- BASOPHIL [2]: 0%
- EOSINOPHIL [2]: 0.17%
- ERYTHROCYTE COUNT [2]: 5.84 x10E6/uL
- HEMATOCRIT [2]: 36.88%
- HEMOGLOBIN [2]: 14.48 G/DL
- LEUKOCYTE COUNT [2]: 13.6 x10E3/uL
- LYMPHOCYTE [2]: 92.17%
- MEAN CORPUSCULAR HEMOGLOBIN [2]: 24.85 pg
- MEAN CORPUSCULAR HEMOGLOBIN CONCENTRATION [2]: 39.3 G/DL
- MEAN CORPUSCULAR VOLUME [2]: 63.23 fL
- MONOCYTE [2]: 0.83%
- NEUTROPHIL [2]: 6.83%
- NUCLEATED RED BLOOD CELLS [2]: 0 /100WBC
- PLATELET COUNT [2]: 1223.5 x10E3/uL
- ALANINE AMINOTRANSFERASE [2]: 55.33 u/L
- ALBUMIN [2]: 4.08 G/DL
- ALKALINE PHOSPHATASE [2]: 355.5 u/L
- ASPARTATE AMINOTRANSFERASE [2]: 87.67 u/L
- BLOOD UREA NITROGEN [2]: 15.33 mg/dL
- CARBON DIOXIDE [2]: 33.83 mmol/L
- CHLORIDE [2]: 99.67 MEQ/L
- CHOLESTEROL [2]: 72.17 mg/dL
- CREATINE PHOSPHOKINASE [2]: 268.33 u/L
- CREATININE [2]: 0.15 mg/dL
- GLUCOSE [2]: 152.5 mg/dL
- LACTATE DEHYDROGENASE [2]: 212.67 u/L
- LIPASE [2]: 10.83 u/L
- PHOSPHORUS [2]: 11.65 mg/dL
- POTASSIUM [2]: 6.73 MEQ/L
- SODIUM [2]: 142.43 MEQ/L
- TOTAL BILIRUBIN [2]: 0.23 mg/dL
- TOTAL PROTEIN [2]: 6.07 G/DL
- URIC ACID [2]: 1.7 mg/dL
- ABSOLUTE BASOPHIL [3]: 0 CELLS/uL
- ABSOLUTE EOSINOPHIL [3]: 0 CELLS/uL
- ABSOLUTE LYMPHOCYTE [3]: 15455.33 CELLS/uL
- ABSOLUTE MONOCYTE [3]: 295 CELLS/uL
- ABSOLUTE SEGMENTED NEUTROPHIL [3]: 1116.33 CELLS/uL
- BASOPHIL [3]: 0%
- EOSINOPHIL [3]: 0%
- ERYTHROCYTE COUNT [3]: 5.86 x10E6/uL
- HEMATOCRIT [3]: 37.3%
- HEMOGLOBIN [3]: 14.83 G/DL
- LEUKOCYTE COUNT [3]: 16.87 x10E3/uL
- LYMPHOCYTE [3]: 91.67%
- MEAN CORPUSCULAR HEMOGLOBIN [3]: 25.33 pg
- MEAN CORPUSCULAR HEMOGLOBIN CONCENTRATION [3]: 39.77 G/DL
- MEAN CORPUSCULAR VOLUME [3]: 63.67 fL
- MONOCYTE [3]: 1.67%
- NEUTROPHIL [3]: 6.67%
- NUCLEATED RED BLOOD CELLS [3]: 0 /100WBC
- PLATELET COUNT [3]: 1367.67 x10E3/uL
- ALANINE AMINOTRANSFERASE [3]: 54.67 u/L
- ALBUMIN [3]: 4.17 G/DL
- ALKALINE PHOSPHATASE [3]: 303 u/L
- ASPARTATE AMINOTRANSFERASE [3]: 88.33 u/L
- BLOOD UREA NITROGEN [3]: 12 mg/dL
- CARBON DIOXIDE [3]: 32.67 mmol/L
- CHLORIDE [3]: 101.67 MEQ/L
- CHOLESTEROL [3]: 70.67 mg/dL
- CREATINE PHOSPHOKINASE [3]: 534 u/L
- CREATININE [3]: 0.2 mg/dL
- GLUCOSE [3]: 151 mg/dL
- LACTATE DEHYDROGENASE [3]: 218 u/L
- LIPASE [3]: 13.67 u/L
- PHOSPHORUS [3]: 12.87 mg/dL
- POTASSIUM [3]: 6.77 MEQ/L
- SODIUM [3]: 145.17 MEQ/L
- TOTAL BILIRUBIN [3]: 0.17 mg/dL
- TOTAL PROTEIN [3]: 5.9 G/DL
- URIC ACID [3]: 1.7 mg/dL
